Reference: patent publication US10363239B2, “Method for inhibiting growth of cancer cells” (Pain Therapeutics, Inc., priority 2013, dated 2019)

Columns and labels:
[1] = target: FLNA pentapeptide of SEQ ID NO: 1 (Bn-VAKGL) (Homo sapiens, UniProt P21333); assay: FITC-NLX-based FLNA screening assay (inhibition of FITC-naloxone binding to Bn-VAKGL on streptavidin plates); conditions: for Percent inhibition of FITC-NLX binding (preliminary study): 100 nM frozen-stored FITC-NLX, average of two runs
mu opiate receptor (MOR) = assay: MOR agonist activity using [35S]GTPγS binding assay in striatal membranes; assay type: biochemical; conditions: for % DAMGO (0.1 μM) / % DAMGO (1 μM): relative to DAMGO; for % DAMGO + BFNA: 1 μM compound + β-FNA, relative to DAMGO + BFNA
Method: To assess the mu opiate receptor (MOR) agonist activity of positive compounds from the FLNA screening, compounds were tested in a [^35S]GTPγS binding assay using striatal membranes. […] This assay measures a functional consequence of receptor occupancy at one of the earliest receptor-mediated events. The assay permits traditional pharmacological parameters of potency, efficacy and antagonist affinity, with the advantage that agonist measures are not subjected to amplification or other modulation that may occur when analyzing parameters further downstream of the receptor.
Thus, striatal tissue was homogenized in 10 volumes of ice cold 25 mM HEPES buffer, pH 7.4, which contained 1 mM EGTA, 100 mM sucrose, 50 μg/ml leupeptin, 0.04 mM PMSF, 2 μg/ml soybean trypsin inhibitor and 0.2% 2-mercaptoethanol. The homogenates were centrifuged at 800×g for 5 minutes and the supernatants were centrifuged at 49,000×g for 20 minutes. The resulting pellets were suspended in 10 volume of reaction buffer, which contained 25 mM HEPES, pH 7.5, 100 mM NaCl, 50 μg/ml leupeptin, 2 μg/ml soybean trypsin inhibitor, 0.04 mM PMSF and 0.02% […].
The resultant striatal membrane preparation (200 μg) was admixed and maintained (incubated) at 30° C. for 5 minutes in reaction buffer as above that additionally contained 1 mM MgCl2 and 0.5 nM [^35S]GTPγS (0.1 μCi/assay, PerkinElmer Life and Analytical Sciences) in a total volume of 250 μl and continued for 5 minutes in the absence or presence of 0.1-10 μM of an assayed compound of interest. The reaction was terminated by dilution with 750 μl of ice-cold reaction buffer that contained 20 mM MgCl2 and 1 mM EGTA and immediate centrifugation at 16,000×g for 5 minutes.
The resulting pellet was solubilized by sonicating for 10 seconds in 0.5 ml of immunoprecipitation buffer containing 0.5% digitonin, 0.2% sodium cholate and 0.5% NP-40. Normal rabbit serum (1 μl) was added to 1 ml of lysate and incubated at 25° C. for 30 minutes. Nonspecific immune complexes were removed by incubation with 25 μl of protein A/G-conjugated agarose beads at 25° C. for 30 minutes followed by centrifugation at 5,000×g at 4° C. for 5 minutes. The supernatant was divided and separately incubated at 25° C. for 30 minutes with antibodies raised against Gαo proteins (1:1,000 dilutions).
The immunocomplexes so formed were collected by incubation at 25° C. for 30 minutes with 40 μl of agarose-conjugated protein A/G beads and centrifugation at 5,000×g at 4° C. for 5 minutes. The pellet was washed and suspended in buffer containing 50 mM Tris-HCl, pH 8.0, and 1% NP-40. The radioactivity in the suspension was determined by liquid scintillation spectrometry.

[2] = Series C-2, 0.1 μM compound, [35S]GTPγS binding to Gαo, striatal membranes
[3] = Series C-2, 1 μM compound + 1 μM β-FNA
[4] = Series C-2, 1 μM compound, [35S]GTPγS binding to Gαo, striatal membranes
[5] = Series C-1, 0.1 μM compound, [35S]GTPγS binding to Gαo, striatal membranes
[6] = Series C-1, 1 μM compound + 1 μM β-FNA
[7] = Series C-1, 1 μM compound, [35S]GTPγS binding to Gαo, striatal membranes

Row | Structure (SMILES) | % DAMGO (0.1 μM) (mu opiate receptor (MOR); Series C-2, 0.1 μM compound) [%] | MOR agonist activity, percent [35S]GTPγS binding at the stated compound concentration (mu opiate receptor (MOR); [2]) [%] | MOR agonist activity, percent [35S]GTPγS binding at the stated compound concentration (mu opiate receptor (MOR); [3]) [%] | % DAMGO + BFNA (mu opiate receptor (MOR); Series C-2) [%] | % DAMGO (1 μM) (mu opiate receptor (MOR); Series C-2, 1 μM compound) [%] | MOR agonist activity, percent [35S]GTPγS binding at the stated compound concentration (mu opiate receptor (MOR); [4]) [%] | % DAMGO (0.1 μM) (mu opiate receptor (MOR); Series C-1, 0.1 μM compound) [%] | % DAMGO + BFNA (mu opiate receptor (MOR); Series C-1) [%] | % DAMGO (1 μM) (mu opiate receptor (MOR); Series C-1, 1 μM compound) [%] | other results
1 | C=CCN1CC[C@]23c4c5ccc(O)c4O[C@H]2C(=O)CC[C@]3(O)[C@H]1C5 [(+) NLX] |  |  |  |  |  |  |  |  |  | Percent inhibition of FITC-NLX binding (preliminary study) ([1]; compound 0.1 nM): 22.7%; Percent inhibition of FITC-NLX binding (preliminary study) ([1]; compound 1 nM): 22.8%; Percent inhibition of FITC-NLX binding (preliminary study) ([1]; compound 10 nM): 23.1%; Percent inhibition of FITC-NLX binding (preliminary study) ([1]; compound 100 nM): 22.8%; Percent inhibition of FITC-NLX binding (preliminary study) ([1]; compound 1 µM): 39.8%
2 | O=C1CN(Cc2ccccc2)C2(CCN(C3CCCCC3)CC2)N1 [C0137M(P7)] | 95.6 | 180.8 | 55.8 | 115.1 | 78.1 | 193.8 |  |  |  | 
3 | COc1ccc(OCC(O)CN2CCc3ccccc32)cc1 (centres unmarked) [Compound A0069] |  |  |  |  |  |  |  |  |  | Percent Binding Inhibition ([1]; FLNA-binding compound 0.01 μM, 10 nM FITC-NLX): 32.0%; Percent Binding Inhibition ([1]; FLNA-binding compound 0.1 μM, 10 nM FITC-NLX): 40.4%; Percent Binding Inhibition ([1]; FLNA-binding compound 1 μM, 10 nM FITC-NLX): 46.1%
4 | COc1c2c(cc3c1C(CC(=O)CCc1ccccc1)[N+](C)(C)CC3)OCO2 (centres unmarked) [Compound B0015] |  |  |  |  |  |  |  |  |  | inhibition at 0.01 µM ([1]; read-out: Percent Binding Inhibition, FLNA-binding compound 0.01 μM, 10 nM FITC-NLX): 30.4%; inhibition at 0.1 µM ([1]; read-out: Percent Binding Inhibition, FLNA-binding compound 0.1 μM, 10 nM FITC-NLX): 35.3%; inhibition at 1 µM ([1]; read-out: Percent Binding Inhibition, FLNA-binding compound 1 μM, 10 nM FITC-NLX): 42.3%
5 | COc1ccc(CCCCC2c3c(cc4c(c3OC)OCO4)CC[N+]2(C)C)cc1 (centres unmarked) [Compound B0056] |  |  |  |  |  |  |  |  |  | % DAMGO (0.1 μM) (mu opiate receptor (MOR); Series B, 0.1 μM compound): 98.9%; MOR agonist activity, percent [35S]GTPγS binding at the stated compound concentration (mu opiate receptor (MOR); Series B, 0.1 μM compound, [35S]GTPγS binding to Gαo, striatal membranes): 174.7%; MOR agonist activity, percent [35S]GTPγS binding at the stated compound concentration (mu opiate receptor (MOR); Series B, 1 μM compound + 1 μM β-FNA): 41.8%; % DAMGO + BFNA (mu opiate receptor (MOR); Series B): 158.9%; % DAMGO (1 μM) (mu opiate receptor (MOR); Series B, 1 μM compound): 113.6%; MOR agonist activity, percent [35S]GTPγS binding at the stated compound concentration (mu opiate receptor (MOR); Series B, 1 μM compound, [35S]GTPγS binding to Gαo, striatal membranes): 288.8%
6 | O=C(c1ccc([N+](=O)[O-])cc1)N1CCC2(CC1)OCCN2S(=O)(=O)c1ccc([N+](=O)[O-])cc1 [Compound C0033] |  |  |  |  |  |  | 85.9 | 235.0 | 80.6 | Concentration of FLNA-Binding Compound as Agonist 0.1 μM (mu opiate receptor (MOR); [5]): 134.5%; Concentration of FLNA-Binding Compound as Agonist 1 μM + BFNA (mu opiate receptor (MOR); [6]): 76.6%; Concentration of FLNA-Binding Compound as Agonist 1 μM (mu opiate receptor (MOR); [7]): 186.4%
7 | CC(=O)c1ccc(S(=O)(=O)N2CCC3(CC2)NCC(=O)N3Cc2ccccc2)cc1 [Compound C0082M] |  |  |  |  |  |  | 113.7 | 181.1 | 107.8 | Concentration of FLNA-Binding Compound as Agonist 0.1 μM (mu opiate receptor (MOR); [5]): 228.1%; Concentration of FLNA-Binding Compound as Agonist 1 μM + BFNA (mu opiate receptor (MOR); [6]): 97.6%; Concentration of FLNA-Binding Compound as Agonist 1 μM (mu opiate receptor (MOR); [7]): 338.4%
8 | CC(=O)c1ccc(S(=O)(=O)N2CCC3(CC2)NC(=O)CN3Cc2ccccc2)cc1 [Compound C0085M] |  |  |  |  |  |  | 105.5 | 112.6 | 78.4 | 
9 | O=C1CN(Cc2ccccc2)C2(CCN(S(=O)(=O)c3cc(Cl)cc(Cl)c3O)CC2)N1 [Compound C0138M] |  |  |  |  |  |  | 86.3 | 131.0 | 90.9 | Concentration of FLNA-Binding Compound as Agonist 0.1 μM (mu opiate receptor (MOR); [5]): 126.9%; Concentration of FLNA-Binding Compound as Agonist 1 μM + BFNA (mu opiate receptor (MOR); [6]): 51.5%; Concentration of FLNA-Binding Compound as Agonist 1 μM (mu opiate receptor (MOR); [7]): 183.9%
10 | COc1ccc(S(=O)(=O)N2CCC3(NCCO3)C3CCCCC32)cc1 (centres unmarked) [Compound C0144M-2] | 108.3 | 186.3 | 125.9 | 137.9 | 90.8 | 295.9 |  |  |  | 
11 | COc1ccc(S(=O)(=O)N2CCOC23CCCNC3)cc1 (centres unmarked) [Compound C0145M-3] | 112.2 | 193.0 | 87.0 | 95.3 | 88.7 | 289.2 |  |  |  | 
12 | O=S(=O)(c1ccccc1Oc1ccccc1)N1CCC2(CC1)NCCO2 [Compound C0149M-2] | 122.0 | 209.8 | 93.4 | 102.3 | 124.8 | 406.7 |  |  |  | 
13 | COc1ccc(NC(=O)N2CCC3(CC2)NCCO3)cc1 [Compound C0151M-2] | 201.6 | 346.8 | 212.8 | 233.1 | 122.0 | 397.6 |  |  |  | 
14 | C[C@@H](NC(=O)[C@@H](N)Cc1ccc(O)cc1)C(=O)NCC(=O)N(C)[C@@H](Cc1ccccc1)C(=O)NCCO [DAMGO, [D-Ala2, N-MePhe4, Gly-ol]-enkephalin, reference compound] | 100 |  |  | 100 | 100 |  | 100 | 100 | 100 | MOR agonist activity, FLNA-Binding Compound as Agonist 0.1 μM (preliminary study) (mu opiate receptor (MOR); 0.1 μM, average of two runs): 144.7%; MOR agonist activity, FLNA-Binding Compound as Agonist 1 μM + βNFA (preliminary study) (mu opiate receptor (MOR); 1 μM + βNFA, average of two runs): 56.8%; MOR agonist activity, FLNA-Binding Compound as Agonist 1 μM (preliminary study) (mu opiate receptor (MOR); 1 μM, average of two runs): 233.4%; Concentration of FLNA-Binding Compound as Agonist 0.1 μM (mu opiate receptor (MOR); [5]): 168.5%; Concentration of FLNA-Binding Compound as Agonist 1 μM + BFNA (mu opiate receptor (MOR); [6]): 53.2%; Concentration of FLNA-Binding Compound as Agonist 1 μM (mu opiate receptor (MOR); [7]): 266.1%; Concentration of FLNA-Binding Compound as Agonist 0.1 μM (mu opiate receptor (MOR); [2]): 168.5%; Concentration of FLNA-Binding Compound as Agonist 1 μM + BFNA (mu opiate receptor (MOR); [3]): 53.2%; Concentration of FLNA-Binding Compound as Agonist 1 μM (mu opiate receptor (MOR); [4]): 266.1%
